# Experimental data: PubChem BioAssay (NCI)
# Several values for one entry are separate records, joined by “and”; a condition that tells them apart may be missing. Equal entries are not always repeated.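 Step 1: Grow cells in 96-well plates. Step 2: Expose to compound for 48 hours at 5 concentrations. Step 3: Interpolate endpoints linearly; if unreached, use highest concentration. GI50 marks 50% less growth. TGI is the concentration that stops growth completely.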
# What was measured:
# Assay in all cases: NCI anticancer screen, dose series, 48 h
# [1] = system: HOP-92 NSCLC
# [2] = system: OVCAR-5 ovarian
# [3] = system: SF-539 CNS
# [4] = system: RPMI-8226 leukemia
# [5] = system: HCC-2998 colon
# [6] = system: NCI-H23 lung
# [7] = system: COLO 205 colon
# [8] = system: NCI-H226 lung
# [9] = system: SNB-19 CNS
# [10] = system: BT-549 breast
# [11] = system: SF-268 CNS
# [12] = system: A549 NSCLC
# [13] = system: UACC-62 melanoma
# [14] = system: A498 renal
# [15] = system: NCI-H522 lung
# [16] = system: EKVX NSCLC
# [17] = system: CCRF-CEM leukemia
# [18] = system: UO-31 renal
# [19] = system: PC-3 prostate
# [20] = system: CAKI-1 renal
# [21] = system: M14 melanoma
# [22] = system: SF-295 CNS
# [23] = system: HT29 colon
# [24] = system: SR leukemia
# [25] = system: HCT-116 colon
# [26] = system: K-562 leukemia
# [27] = system: IGROV1 ovarian
# [28] = system: NCI-H460 lung
# [29] = system: UACC-257 melanoma
# [30] = system: SK-OV-3 ovarian
# [31] = system: KM12 colon
# [32] = system: OVCAR-3 ovarian
# [33] = system: HCT-15 colon
# [34] = system: SW-620 colon
# [35] = system: ACHN renal
# [36] = system: 786-0 renal
# [37] = system: DU-145 prostate
# [38] = system: T-47D breast
# [39] = system: SNB-75 CNS
# [40] = system: SN12C renal
# [41] = system: SK-MEL-28 melanoma
# [42] = system: NCI/ADR-RES ovarian
# [43] = system: MDA-MB-231 breast
# [44] = system: RXF 393 renal
# [45] = system: MCF7 breast
# [46] = system: HS 578T breast
# [47] = system: MALME-3M melanoma
# [48] = system: OVCAR-4 ovarian
# [49] = system: TK-10 renal
# [50] = system: HOP-62 NSCLC
# [51] = system: MOLT-4 leukemia
# [52] = system: MDA-MB-435
# [53] = system: SK-MEL-5 melanoma
# [54] = system: LOX IMVI melanoma
# [55] = system: OVCAR-8 ovarian
# [56] = system: SK-MEL-2 melanoma
# [57] = system: U251 CNS
# [58] = system: HL-60(TB) leukemia
smiles,measurement,setting,value
Nc1nc(Cl)nc2c1ncn2[C@@H]1O[C@H](COS(N)(=O)=O)[C@@H](O)[C@H]1O,GI50,[1],15.9 nM and 20.6 nM
same,TGI,[1],45.4 nM and 56 nM
same,GI50,[2],4.25 nM
same,TGI,[2],40.1 nM and 38.5 nM
same,GI50,[3],21.7 nM
same,TGI,[3],56.3 nM and 53.3 nM
same,GI50,[4],25.1 nM and 25.5 nM
same,TGI,[4],97.5 nM and 72 nM
same,GI50,[5],19.1 nM and 22.6 nM
same,TGI,[5],38.2 nM and 49.8 nM
same,GI50,[6],21 nM and 28.8 nM
same,TGI,[6],53.8 nM and 98.2 nM
same,GI50,[7],20.2 nM and 23.9 nM
same,TGI,[7],48.9 nM and 54.3 nM
same,GI50,[8],17.4 nM and 16.7 nM
same,TGI,[8],40.1 nM and 46.3 nM
same,GI50,[9],3.65 nM
same,TGI,[9],32.3 nM and 46.5 nM
same,GI50,[10],9 nM and 24.3 nM
same,TGI,[10],64.6 nM and 71.3 nM
same,GI50,[11],23.4 nM and 26.9 nM
same,TGI,[11],76.8 nM and 88 nM
same,GI50,[12],25.9 nM and 26.3 nM
same,TGI,[12],82.9 nM and 82.3 nM
same,GI50,[13],19 nM and 21.7 nM
same,TGI,[13],44 nM and 56.1 nM
same,GI50,[14],9.43 nM and 14.8 nM
same,TGI,[14],25.4 nM and 30.9 nM
same,GI50,[15],5.03 nM and 21.2 nM
same,TGI,[15],24.4 nM and 62.3 nM
same,GI50,[16],23.2 nM and 30.1 nM
same,TGI,[16],68.8 nM and 167 nM
same,GI50,[17],15.9 nM and 27 nM
same,TGI,[17],101 nM
same,GI50,[18],19.3 nM
same,TGI,[18],47.5 nM
same,GI50,[19],20.9 nM and 25.8 nM
same,TGI,[19],73.7 nM and 80 nM
same,GI50,[20],20.8 nM
same,TGI,[20],50.6 nM
same,GI50,[21],18.6 nM and 19.2 nM
same,TGI,[21],42.1 nM and 37.5 nM
same,GI50,[22],24.4 nM and 32.4 nM
same,TGI,[22],75.1 nM and 143 nM
same,GI50,[23],25.4 nM and 30 nM
same,TGI,[23],67.8 nM and 94.9 nM
same,GI50,[24],3.07 nM
same,TGI,[24],48.7 nM and 41.8 nM
same,GI50,[25],18.3 nM and 25.1 nM
same,TGI,[25],104 nM and 76.7 nM
same,GI50,[26],17 nM and 19.9 nM
same,TGI,[26],118 nM
same,GI50,[27],30.4 nM and 30.8 nM
same,TGI,[27],91.5 nM and 96.4 nM
same,GI50,[28],30.6 nM and 30.5 nM
same,TGI,[28],104 nM and 108 nM
same,GI50,[29],23.3 nM and 24.2 nM
same,TGI,[29],69.4 nM and 68.5 nM
same,GI50,[30],24.8 nM and 26 nM
same,TGI,[30],73.9 nM and 66.6 nM
same,GI50,[31],23.2 nM and 32.1 nM
same,TGI,[31],70.7 nM and 166 nM
same,GI50,[32],28.2 nM
same,TGI,[32],86.4 nM and 71.4 nM
same,GI50,[33],27.2 nM and 31.3 nM
same,TGI,[33],88.1 nM and 168 nM
same,GI50,[34],25.6 nM and 31.2 nM
same,GI50,[35],25.7 nM and 25.2 nM
same,TGI,[35],77.8 nM and 65.7 nM
same,GI50,[36],21.4 nM and 26.6 nM
same,TGI,[36],55.6 nM and 74.1 nM
same,GI50,[37],4.13 nM
same,TGI,[37],34.9 nM and 30.1 nM
same,GI50,[38],15.6 nM and 20 nM
same,TGI,[38],65.6 nM and 74.4 nM
same,GI50,[39],20.2 nM and 20.9 nM
same,TGI,[39],55.8 nM and 55.4 nM
same,GI50,[40],3.77 nM
same,TGI,[40],41.7 nM and 86.8 nM
same,GI50,[41],20.1 nM and 20.8 nM
same,TGI,[41],50 nM and 51.1 nM
same,GI50,[42],12.1 nM and 19.6 nM
same,TGI,[42],54 nM and 145 nM
same,GI50,[43],4.81 nM
same,TGI,[43],29.4 nM and 26.2 nM
same,GI50,[44],19 nM and 22.9 nM
same,TGI,[44],47.5 nM and 49.6 nM
same,GI50,[45],24 nM and 29.3 nM
same,GI50,[46],26.3 nM and 25.6 nM
same,TGI,[46],86.9 nM and 78.7 nM
same,GI50,[47],18.8 nM and 20.9 nM
same,TGI,[47],40.3 nM and 45.6 nM
same,GI50,[48],3.03 nM
same,TGI,[48],9.29 nM and 32.4 nM
same,GI50,[49],21 nM and 21.1 nM
same,TGI,[49],58.1 nM and 65.4 nM
same,GI50,[50],6.84 nM
same,TGI,[50],33.3 nM
same,GI50,[51],10.9 nM
same,TGI,[51],391 nM and 45.7 nM
same,GI50,[52],17.1 nM and 17.6 nM
same,TGI,[52],32.7 nM and 34.1 nM
same,GI50,[53],16.8 nM and 17.9 nM
same,TGI,[53],31.3 nM and 33 nM
same,GI50,[54],18.1 nM and 23.1 nM
same,TGI,[54],35.6 nM and 55.2 nM
same,GI50,[55],17.8 nM and 17.1 nM
same,TGI,[55],56.2 nM and 45.3 nM
same,GI50,[56],18.5 nM and 19.5 nM
same,TGI,[56],43.7 nM and 42.9 nM
same,GI50,[57],22.2 nM and 23.1 nM
same,TGI,[57],65.8 nM and 66.3 nM
same,TGI,[58],22.4 nM
